Results on two compounds are retold here after patent US20260376293A1, “METHODS FOR STUDYING GPR158 PHARMACOLOGY AND IDENTIFICATION OF ITS LIGANDS” (UNIVERSITY OF FLORIDA RESEARCH FOUNDATION, INCORPORATED, priority 2022, published 2026).

Test [1] relates to stress-induced depressive rat. To be noted: cited from earlier work.
The next test addresses T1, GPR158 S266A mutant (Homo sapiens, UniProt Q5T848, S266A).
T1 construct: RGS7/Gβ5 co-expressed in the GAP BRET row only
T1 sequence (Q5T848 24-1215 S266A): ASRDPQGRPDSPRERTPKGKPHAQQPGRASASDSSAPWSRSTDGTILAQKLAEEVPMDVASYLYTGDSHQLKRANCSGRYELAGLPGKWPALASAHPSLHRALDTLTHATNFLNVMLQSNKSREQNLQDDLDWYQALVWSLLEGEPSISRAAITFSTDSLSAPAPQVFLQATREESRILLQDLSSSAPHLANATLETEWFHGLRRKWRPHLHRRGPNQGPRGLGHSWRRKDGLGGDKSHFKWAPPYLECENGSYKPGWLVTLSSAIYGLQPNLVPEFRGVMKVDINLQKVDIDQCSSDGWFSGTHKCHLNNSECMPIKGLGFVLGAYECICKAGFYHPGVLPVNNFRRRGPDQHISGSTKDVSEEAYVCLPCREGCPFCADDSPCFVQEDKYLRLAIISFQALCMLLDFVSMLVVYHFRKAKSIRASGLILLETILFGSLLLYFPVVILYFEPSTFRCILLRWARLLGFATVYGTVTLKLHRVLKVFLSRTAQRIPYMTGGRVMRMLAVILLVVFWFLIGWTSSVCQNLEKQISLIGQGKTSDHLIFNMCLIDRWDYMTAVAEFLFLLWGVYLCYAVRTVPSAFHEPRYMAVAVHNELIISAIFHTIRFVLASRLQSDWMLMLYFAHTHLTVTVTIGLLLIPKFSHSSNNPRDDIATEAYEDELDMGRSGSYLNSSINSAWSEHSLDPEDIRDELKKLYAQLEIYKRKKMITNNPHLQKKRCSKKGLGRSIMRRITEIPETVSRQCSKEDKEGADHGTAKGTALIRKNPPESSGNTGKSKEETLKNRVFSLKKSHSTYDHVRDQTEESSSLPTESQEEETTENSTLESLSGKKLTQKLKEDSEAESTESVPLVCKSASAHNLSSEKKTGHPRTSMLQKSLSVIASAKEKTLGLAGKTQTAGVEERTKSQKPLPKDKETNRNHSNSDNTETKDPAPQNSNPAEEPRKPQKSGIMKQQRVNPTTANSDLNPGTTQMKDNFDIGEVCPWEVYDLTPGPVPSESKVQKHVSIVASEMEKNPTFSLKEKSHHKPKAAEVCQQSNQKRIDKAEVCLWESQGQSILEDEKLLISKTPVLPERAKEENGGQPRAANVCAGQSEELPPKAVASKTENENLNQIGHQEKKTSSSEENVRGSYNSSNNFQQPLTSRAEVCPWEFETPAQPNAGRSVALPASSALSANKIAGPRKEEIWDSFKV
The test is described as follows: GAP BRET assay on GPR158 mutant S266A. It counts as cell-based. An excerpt: FIGS. 11A-11G. Probing Cache domain of GPR158 as a ligand binding site A) Computational docking of glycine into putative ligand binding pocket on GPR158 Cache domain. Glycine and directly interacting residues are shown as sticks. Hydrogen bonds and van der Waals interactions are shown as dotted lines. B) Diagram showing interactions in the docked model of glycine against GPR158 Cache domain. Hydrogen bonds are shown as dashed lines, van der Waals interactions are shown as intersecting semicircles, and the secondary structural context of Ser266 and Tyr269 is shown as an arc. Dagger indicates a residue implicated in glycine binding in 11A. […] Error bars are mean±s.e.m. of 3 independent experiments in triplicate. *p<0.05, **p<0.01, ***p<0.001, ****p<0.0001, ns=p>0.05, two-way ANOVA Columns with no fill (Ctrl), columns with angled-line fill (Glycine) E) Quantification of glycine inhibitory effect on kGAP normalized to the effect seen with WT receptor. […]
Cellular measurements of BRET between Venus-Gβ1γ2 and masGRK3ct-Nluc were performed to examine GAP activity of RGS protein in living cells (described in detail in Masuho et al., 2015 (40)). […] The BRET signal was determined by calculating the ratio of the light emitted by the Venus-Gβ1γ2 (535 nm with a 30 nm band path width) over the light emitted by the masGRK3ct-Nluc (475 nm with a 30 nm band path width). […]

Regarding `NCCS(=O)(=O)O` [taurine, 2-aminoethanesulfonic acid], in test [1], the antidepressant effect entry is given as “antidepressant effect”.

On to `NCC(=O)O` [glycine], for which, on GPR158 S266A mutant, the “regulation of mutant activity by glycine” value was “unable to be regulated”.
